Activity calls are given as the source filed them. No cut-off for these calls is given here.

In data set [1] the target is T1, Somatostatin receptor type 3 (Mus musculus, UniProt P30935). The data set is described as follows: biochemical.
Description: Displacement of [125I]SS-28 from mouse SSTR3 transfected in CHO cells after 60 to 90 mins
The target of data set [2] is Somatostatin receptor type 3 (Mus musculus) (UniProt P30935). Briefly: Inhibition of mouse SSTR3 transfected in CHO cells assessed as inhibition of SRIF-induced reduction of cAMP accumulation after 45 mins relative to control. On the set-up: concentration or dose not given beside the values. It counts as functional, cell-based. On the technique in general: Cyclic AMP is a second messenger, typically raised through Gs and lowered through Gi signalling.
Chain of Somatostatin receptor type 3 (Mus musculus) (P30935 whole entry): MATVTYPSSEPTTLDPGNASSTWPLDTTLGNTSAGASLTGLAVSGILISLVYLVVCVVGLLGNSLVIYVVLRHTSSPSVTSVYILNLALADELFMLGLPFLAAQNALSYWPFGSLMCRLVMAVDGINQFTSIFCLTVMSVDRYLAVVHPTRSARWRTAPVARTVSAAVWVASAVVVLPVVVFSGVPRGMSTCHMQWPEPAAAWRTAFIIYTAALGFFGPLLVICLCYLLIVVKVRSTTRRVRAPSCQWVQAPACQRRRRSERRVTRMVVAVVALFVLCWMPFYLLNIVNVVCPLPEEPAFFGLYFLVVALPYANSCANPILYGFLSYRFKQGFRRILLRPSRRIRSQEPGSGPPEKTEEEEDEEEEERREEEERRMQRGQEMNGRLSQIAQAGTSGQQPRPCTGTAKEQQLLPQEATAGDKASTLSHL

Data set [3] deals with T2, Somatostatin receptor type 3 (Homo sapiens, UniProt P32745).
T2 sequence (P32745 whole entry): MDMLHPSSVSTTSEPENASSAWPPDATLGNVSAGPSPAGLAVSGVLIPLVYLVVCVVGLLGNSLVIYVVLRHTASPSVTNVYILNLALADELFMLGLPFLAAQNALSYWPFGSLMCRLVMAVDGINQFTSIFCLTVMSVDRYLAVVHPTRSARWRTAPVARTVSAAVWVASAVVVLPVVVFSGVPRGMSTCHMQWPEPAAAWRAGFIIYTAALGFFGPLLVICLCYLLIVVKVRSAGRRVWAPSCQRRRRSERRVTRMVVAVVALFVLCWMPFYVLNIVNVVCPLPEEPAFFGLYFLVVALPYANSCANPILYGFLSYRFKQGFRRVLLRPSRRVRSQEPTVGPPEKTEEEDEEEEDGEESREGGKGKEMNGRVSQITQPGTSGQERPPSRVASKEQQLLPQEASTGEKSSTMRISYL
Description: Inhibition of human SSTR3 transfected in CHO cells assessed as inhibition of SRIF-induced reduction of cAMP accumulation after 45 mins
Data set [4] concerns Mus musculus. The data set is described as follows: Antidiabetic activity in C57BL/6 mouse assessed as reduction of glucose excursion at 1 mg/kg, po by OGTT. It counts as functional. On the set-up: scale not given: the % may be the effect or the level left.
The target of data set [5] is T2, Somatostatin receptor type 3. The data set is described as follows: biochemical.
Description: Displacement of [125I]SS-28 from human SSTR3 transfected in CHO cells after 60 to 90 mins
The target in data set [6] is T1, Somatostatin receptor type 3.
The test system of data set [7] is Mus musculus. Briefly: Antidiabetic activity in C57BL/6N mouse assessed as reduction of blood glucose level at 10 mg/kg, po measured after 60 mins post administration. More on the design: dose 10 mg/kg. In kind it is functional, organism-based.
Data set [8] in a line: Plasma concentration in C57BL/6 mouse at 10 mg/kg, po measured after 2.5 hrs. In kind it is ADME, organism-based. On the set-up: dose 10 mg/kg, route oral.
Data set [9] deals with Mus musculus. Briefly: Antidiabetic activity in C57BL/6 mouse assessed as reduction of glucose excursion at 10 mg/kg, po by ipGTT. It counts as functional. On the set-up: scale not given: the % may be the effect or the level left.
In data set [10] the target is Voltage-gated inwardly rectifying potassium channel KCNH2 (Homo sapiens, UniProt Q12809).
Chain of Voltage-gated inwardly rectifying potassium channel KCNH2 (Q12809 whole entry): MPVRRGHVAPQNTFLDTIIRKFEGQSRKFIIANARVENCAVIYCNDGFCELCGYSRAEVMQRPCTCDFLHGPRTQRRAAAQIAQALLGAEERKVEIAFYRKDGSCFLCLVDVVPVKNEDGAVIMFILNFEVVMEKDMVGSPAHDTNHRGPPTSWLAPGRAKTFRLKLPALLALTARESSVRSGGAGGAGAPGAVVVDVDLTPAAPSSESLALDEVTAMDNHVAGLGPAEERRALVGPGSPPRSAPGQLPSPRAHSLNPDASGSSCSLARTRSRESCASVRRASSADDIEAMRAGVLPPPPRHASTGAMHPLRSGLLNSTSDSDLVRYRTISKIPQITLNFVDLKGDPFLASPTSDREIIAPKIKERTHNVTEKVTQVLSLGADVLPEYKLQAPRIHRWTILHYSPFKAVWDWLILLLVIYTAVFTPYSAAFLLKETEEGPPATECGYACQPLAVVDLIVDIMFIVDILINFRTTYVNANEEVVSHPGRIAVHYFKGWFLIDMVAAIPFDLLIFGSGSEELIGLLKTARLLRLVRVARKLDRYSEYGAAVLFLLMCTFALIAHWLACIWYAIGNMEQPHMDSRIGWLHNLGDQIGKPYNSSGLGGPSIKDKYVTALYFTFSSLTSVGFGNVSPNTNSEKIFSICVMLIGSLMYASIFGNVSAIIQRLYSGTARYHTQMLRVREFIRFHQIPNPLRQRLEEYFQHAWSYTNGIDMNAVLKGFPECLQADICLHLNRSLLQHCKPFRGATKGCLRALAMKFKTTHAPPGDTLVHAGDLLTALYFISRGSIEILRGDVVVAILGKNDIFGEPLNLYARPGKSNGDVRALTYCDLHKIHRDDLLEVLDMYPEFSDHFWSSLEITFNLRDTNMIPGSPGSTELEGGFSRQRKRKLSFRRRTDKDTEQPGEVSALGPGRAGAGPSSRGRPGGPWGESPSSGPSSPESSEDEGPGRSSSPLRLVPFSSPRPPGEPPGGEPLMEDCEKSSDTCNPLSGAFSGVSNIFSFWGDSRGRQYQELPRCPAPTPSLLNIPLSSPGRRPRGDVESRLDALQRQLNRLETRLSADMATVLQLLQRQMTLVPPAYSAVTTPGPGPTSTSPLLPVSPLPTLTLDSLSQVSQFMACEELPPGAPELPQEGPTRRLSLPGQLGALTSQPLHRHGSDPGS
Description: Displacement of radiolabeled MK-499 from human ERG channel
A short description of data set [11]: Half life in mouse at 4 mg/kg, iv. The following applies: in vivo.
A short description of data set [12]: in vivo. To be noted: rat, plasma, po, 2 mg/kg.
Data set [13] is described as follows: Volume of distribution at steady state in mouse at 10 mg/kg, po and 4 mg/kg, iv. The following applies: in vivo.
The nature of data set [14]: in vivo. The following applies: rat, po, 2 mg/kg.
A short description of data set [15]: in vivo. The following applies: mouse, plasma, po, 10 mg/kg.
Data set [16] can be described thus: Half life in rat at 1 mg/kg, iv. The following applies: in vivo.
The nature of data set [17]: in vivo. To be noted: mouse, po, 10 mg/kg.
Data set [18] in a line: Volume of distribution at steady state in rat at 2 mg/kg, po and 1 mg/kg, iv. The following applies: in vivo.
Data set [19] can be described thus: Clearance in rat at 1 mg/kg, iv. To be noted: in vivo.
Data set [20] is described as follows: Clearance in mouse at 4 mg/kg, iv. The following applies: in vivo.
Data set [21] relates to Mus musculus. Briefly: Antidiabetic activity in po dosed C57BL/6 mouse assessed as reduction of glucose excursion by OGTT. It counts as functional, organism-based.
Data set [22] relates to Mus musculus. Briefly: Antidiabetic activity in SSTR3-knockout mouse assessed as reduction of blood glucose excursion at 1 mg/kg by OGTT. It counts as functional. More on the design: scale not given: the % may be the effect or the level left.
Data set [23] concerns the target Somatostatin receptor type 4 (Homo sapiens) (UniProt P31391). The following applies: CHO, 20 uM.
Data set [24] has as its system Mus musculus. Briefly: Antidiabetic activity in C57BL/6N mouse assessed as reduction of blood glucose level at 0.01 to 1 mg/kg, po measured over 5 hrs. It counts as functional, organism-based.
In data set [25] the test system is Mus musculus. Briefly: Antidiabetic activity in C57BL/6N mouse assessed as reduction of blood glucose excursion at 1 mg/kg by OGTT ( Rvb = 91%). In kind it is functional.
For data set [26], the target named is Somatostatin receptor type 5 (Homo sapiens) (UniProt P35346). The data set is described as follows: Inhibition of human SSTR5 transfected in CHO cells assessed as inhibition of SRIF-induced reduction of cAMP accumulation at 5 uM after 45 mins. In kind it is functional, cell-based.
Chain of Somatostatin receptor type 5 (Homo sapiens) (P35346 whole entry): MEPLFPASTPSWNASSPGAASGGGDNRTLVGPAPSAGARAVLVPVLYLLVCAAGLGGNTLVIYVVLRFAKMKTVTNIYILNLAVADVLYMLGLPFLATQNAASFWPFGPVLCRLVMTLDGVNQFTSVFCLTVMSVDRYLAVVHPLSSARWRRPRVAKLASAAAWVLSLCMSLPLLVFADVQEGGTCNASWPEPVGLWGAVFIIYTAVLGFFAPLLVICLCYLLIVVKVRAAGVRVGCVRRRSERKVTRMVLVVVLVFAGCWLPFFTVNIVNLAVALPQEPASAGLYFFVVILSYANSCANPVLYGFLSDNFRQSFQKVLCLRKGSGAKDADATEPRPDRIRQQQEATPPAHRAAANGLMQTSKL
Data set [27] can be described thus: in vivo. The following applies: dog, plasma, po, 2 mg/kg.
The nature of data set [28]: Clearance in rhesus monkey at 1 mg/kg, iv. To be noted: in vivo.
Data set [29] can be described thus: Volume of distribution at steady state in dog at 1 mg/kg, iv and 2 mg/kg, po. The following applies: in vivo.
Data set [30] is described as follows: Half life in dog at 1 mg/kg, iv. To be noted: in vivo.
Data set [31] can be described thus: Clearance in dog at 1 mg/kg, iv. To be noted: in vivo.
Data set [32] can be described thus: in vivo. To be noted: dog, po, 2 mg/kg.
Data set [33] can be described thus: Half life in rhesus monkey at 1 mg/kg, iv. To be noted: in vivo.
Data set [34] can be described thus: in vivo. The following applies: rhesus monkey, po, 2 mg/kg.
The nature of data set [35]: in vivo. To be noted: rhesus monkey, plasma, po, 2 mg/kg.
A short description of data set [36]: Volume of distribution at steady state in rhesus monkey at 1 mg/kg, iv and 2 mg/kg, po. The following applies: in vivo.

T1 sequence (P30935 whole entry): as the sequence (P30935 whole entry) above
Chain of Somatostatin receptor type 4 (Homo sapiens) (P31391 whole entry): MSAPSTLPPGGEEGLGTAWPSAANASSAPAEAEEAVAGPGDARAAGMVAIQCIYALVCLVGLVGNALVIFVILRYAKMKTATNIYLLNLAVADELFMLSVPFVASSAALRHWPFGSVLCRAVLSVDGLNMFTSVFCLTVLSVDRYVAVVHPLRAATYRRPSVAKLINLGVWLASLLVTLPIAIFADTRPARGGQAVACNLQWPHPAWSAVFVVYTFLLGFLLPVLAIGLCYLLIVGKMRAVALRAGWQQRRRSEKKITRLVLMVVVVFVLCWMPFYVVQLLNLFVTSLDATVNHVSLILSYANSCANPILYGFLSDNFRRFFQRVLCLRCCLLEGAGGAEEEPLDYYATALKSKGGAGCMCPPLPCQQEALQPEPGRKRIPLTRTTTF

On to `Cc1nc(C2(c3noc(C)n3)N[C@@H](c3nc(-c4ccc(F)cc4)c[nH]3)Cc3c2[nH]c2ccccc32)no1`, for which the IC50 (usually the concentration that gives 50% inhibition) in [1] worked out at 0.59 nM; in data set [3], 1.2 nM; in data set [5], 0.97 nM; in [6], 1.3 nM. In [2], the inhibition – broadly, the drop in the measured response relative to a control, in per cent – was determined as 133%. In addition, the Activity in data set [4] stood at 71%.
On to `Cc1cnc(C(=O)NCCc2ccc(S(=O)(=O)NC(=O)NC3CCCCC3)cc2)cn1`, for which, in data set [7], the result was Active.
Take `Fc1ccc(-c2c[nH]c([C@H]3Cc4c([nH]c5ccccc45)[C@@H](C4CCOCC4)N3)n2)cc1`: the IC50 in data set [1] stood at 1.7 nM; in [3], 5.7 nM; in [5] it was 2.8 nM; in data set [6] it was 26 nM. The inhibition in data set [2] amounted to 108%. Also, the concentration at 2.5 h in data set [8] worked out at 4600 nM. Also, the Activity in [9] is on record as 79%.
Regarding `Cc1nc([C@H]2N[C@@H](c3nc(-c4ccc(F)cc4)c[nH]3)Cc3c2[nH]c2ccccc32)no1`, in data set [2], the inhibition is 103%. The IC50 in data set [3] turned out to be 19 nM; in data set [5], 19 nM; in data set [6], 18 nM. Moreover, the Ki – broadly, the equilibrium dissociation constant of an inhibitor or competing ligand from its target – in [10] worked out at 385 nM.
Consider `Cn1cc([C@@H]2N[C@@H](c3nc(-c4ccc(F)cc4)c[nH]3)Cc3c2[nH]c2ccccc32)cn1`, for which the half-life (commonly how long it takes for the measured level to halve) in data set [11] was 2.24 h; in [16], 2.26 h. In addition, the values for the AUC(0-t) in [12] and in [15] were 1.38 µM·h and 4.11 µM·h, respectively. Also, the figures for the Vd in data set [13] and in data set [18] were 10.8 L/kg and 4.59 L/kg, respectively. Further, the bioavailability (as a rule, the share of a dose that reaches the circulation, judged against a reference dose that is usually intravenous) in data set [14] is 47%; in data set [17], 100%. In addition, the IC50 in [1] was found to be 4.8 nM; in [3], 33 nM; in [5], 7.2 nM; in data set [6], 26 nM. Also, the inhibition in data set [2] was 66%. The same compound displayed a concentration at 2.5 h in [8] of 1600 nM. Besides, in data set [9], the Activity stood at 84%. Moreover, the clearance (in general, the volume of plasma or blood freed of the substance per unit of time) in data set [19] is 25.3 mL/min/kg; in data set [20] it was 99.6 mL/min/kg. This compound also showed a Ki in [10] of 2190 nM.
Regarding `Cc1nc([C@]2(c3cnn(C)c3)N[C@@H](c3nc(-c4ccc(F)cc4)c[nH]3)Cc3c2[nH]c2ccccc32)no1`, the Activity result in data set [21] was “Dose-dependent effect”; in [22] it was 28%; in [4], 109%. Further, the inhibition amounted to 87% in [2], 42% in data set [23] and 34% in [26]. Also, the result in data set [24] was inactive. In addition, the inhibition in vivo – broadly, the drop in the measured response relative to a control, in per cent – at 1 mg/kg in data set [25] is 112%.
`Fc1ccc(-c2c[nH]c([C@H]3Cc4c([nH]c5ccccc45)C(c4ccccc4)(c4ccccc4)N3)n2)cc1`: in data set [2], the inhibition worked out at 101%. Also, the IC50 was 7.3 nM in data set [3], 0.76 nM in [5] and 2.4 nM in [6]. Moreover, the Ki in data set [10] amounted to 44 nM.
Take `Cn1cc(C2(c3cnn(C)c3)N[C@@H](c3nc(-c4ccc(F)cc4)c[nH]3)Cc3c2[nH]c2ccccc32)cn1`: the IC50 was found to be 0.46 nM in [1], 0.7 nM in [3], 0.74 nM in [5] and 0.48 nM in data set [6]. In addition, the inhibition in data set [2] came to 113%. The Activity in data set [4] is on record as 68%.
For `c1ccc(-c2c[nH]c([C@H]3Cc4c([nH]c5ccccc45)[C@@H](C4CCOCC4)N3)n2)cc1`, in data set [2], the inhibition came out at 98%. Moreover, the IC50 in [3] turned out to be 11 nM. The same compound displayed a concentration at 2.5 h in [8] of 3800 nM. In addition, the Activity in data set [9] is recorded as 75%.
In the case of `Cn1cc([C@H]2N[C@@H](c3nc(-c4ccc(F)cc4)c[nH]3)Cc3c2[nH]c2ccccc32)cn1`, the IC50 came out at 4 nM in data set [1], 9.3 nM in [3], 6.9 nM in data set [5] and 4.4 nM in data set [6]. The inhibition in [2] was 67%. In addition, the concentration at 2.5 h in data set [8] was 1200 nM. Further, in data set [9], the Activity is on record as 91%. Also, affinity in [10] was put at a Ki of 300 nM.
For `Cc1nc([C@@H]2N[C@@H](c3nc(-c4ccc(F)cc4)c[nH]3)Cc3c2[nH]c2ccccc32)no1`, the half-life in data set [11] was 2.58 h; in data set [16], 8.14 h; in data set [30], 6.69 h; in data set [33], 8.08 h. Further, the AUC(0-t) (usually the area under the concentration-time curve up to a stated or last time point) in data set [27] is 27.6 µM·h; in data set [12], 4.36 µM·h; in [15] it was 7.73 µM·h; in [35], 12.4 µM·h. The Vd came to 7.21 L/kg in [13], 0.87 L/kg in [29], 5.83 L/kg in [18] and 1.75 L/kg in data set [36]. Further, the clearance amounted to 2.79 mL/min/kg in data set [28], 1.78 mL/min/kg in [31], 9.67 mL/min/kg in data set [19] and 39.9 mL/min/kg in data set [20]. In addition, the bioavailability was found to be 58% in data set [14], 76% in data set [17], 67% in data set [32] and 51% in data set [34]. Further, the IC50 in data set [1] came to 8.1 nM; in data set [3] it was 58 nM; in data set [5] it was 9.2 nM; in data set [6] it was 29 nM. In addition, the inhibition in data set [2] came to 92%. In addition, the concentration at 2.5 h in data set [8] was found to be 200 nM. Further, the Activity in data set [9] was 87%. In [10], this compound registered a Ki of 2210 nM.
Regarding `Cc1nc([C@]2(c3cnn(C)c3)N[C@H](c3nc(-c4ccc(F)cc4)c[nH]3)Cc3c2[nH]c2ccccc32)no1`, the inhibition in data set [2] came to 68%. In addition, the Activity in [4] was 80%.
In the case of `Cc1nc([C@@]2(c3cnn(C)c3)N[C@H](c3nc(-c4ccc(F)cc4)c[nH]3)Cc3c2[nH]c2ccccc32)no1`, the inhibition in data set [2] stood at 92%. Further, the Activity in data set [4] was 81%.
With `Cc1nc([C@@]2(c3cnn(C)c3)N[C@@H](c3nc(-c4ccc(F)cc4)c[nH]3)Cc3c2[nH]c2ccccc32)no1`, the inhibition in data set [2] stood at 130%. The Activity in [4] amounted to 63%.

Values taken from ChEMBL document CHEMBL2203114, “The Discovery of MK-4256, a Potent SSTR3 Antagonist as a Potential Treatment of Type 2 Diabetes” (ACS Med Chem Lett, 2012).
